The assay has as its system T1, CYP2C9.
T1 construct: gene Cyp2c6
The conditions noted are these: diclofenac as substrate, NADPH-regenerating system (G-6-P, NADP+, G-6-PDH), MgCl2; succinic acid 0-100 μM.

pIC50: −log10 of the molar value.

What is called pIC50 is the IC50 on a negative log10 scale, so that one unit is a factor of ten. A low value points to a high IC50.

Regarding `O=C(O)CCC(=O)O` [succinic acid], the pIC50 is 4.86.

These data come from publication PMC8635542, “Pharmacokinetic study on the interaction between succinic acid and irbesartan in rats and its potential mechanism” (Pharmaceutical Biology, 2021).
